Patent US20040242678A1, “Apolipo protein e secretion promoters” (priority 2001, published 2004)

Legend:
[1] = system: foamed C57BL/6J mouse-derived macrophages; test: Intracellular cholesterol-removing effect in foamed macrophages (enzymatic total cholesterol measurement); type: cell-based; settings: for Cholesterol Reduction (%) Means: 24 hours, relative to the vehicle (0 μmol/L = 100.0)
Experimental: (§1) 4.05 w/v % thioglycollate-elicited intraperitoneally exuded cells were prepared from C57BL/6J and ApoE-deficient mice. The cells were inoculated on 12-well plate at 1.0×10^6 cells/well. The cells were cultured at 37° C. under 5 vol % CO2. After 3 hours of culture, the culture medium was changed to a fresh one to remove inadhesive cells, leaving mouse-peritoneal macrophages in each of the wells. Next day, the mouse-peritoneal macrophages were cultured in a medium containing 50 μg of protein per mL of acetylated LDL for 24 hours to form foam cells.
(§2) To the wells containing the foamed C57BL/6J mouse-derived macrophages, 4,6-di-t-butyl-2,2-dipentyl-5-hydroxy-2,3-dihydrobenzofuran (BO-653) was added to final concentrations of 0, 3 and 10 μmol/L. After 24 hours of culture, the supernatants were collected to prepare samples for SDS-PAGE.
On the other hand, the foamed macrophages which were cultured in the presence of BO-653 and harvested at the same time as the collection of the supernatants were extracted with a mixed solvent of hexane/2-propanol (3:2 v/v) to obtain lipids. Then, the total amount of cholesterol in the lipids was measured using the enzymatic method described by Yoshiki Kawabe et al., “Oxidation-Induced Aggregation of Rabbit Low-Density Lipoprotein by Azo Initiator”, Achieves of Biochemistry and Biophysics 310, 489-496 (1994). We regarded the total amount of cholesterol as intracellular cholesterol content of the macrophages.

C57BL/6J mice = test: ApoE increasing effect in mouse serum (SDS-PAGE of lipoprotein-containing fractions); type: in vivo; settings: high fat diet containing 0.65% BO-653 for 5 weeks versus high fat diet with no BO-653, FIG. 2
Experimental: Seven-week-old C57BL/6J mice were divided into first group of three and second group of four. The animals of the first and second groups were fed a high fat diet containing no BO-653 and 0.65% BO-653, respectively. After 5 weeks of diet initiation, the animals were anesthetized with ether and their blood was individually drawn from vena cava descendens. Serum samples were prepared from the drawn blood and 100 μL of each of the samples was placed into a tube. To the tube, 900 μL of sodium bromide solution having 1.256 density was added, and the tube was centrifuged in TL-100 desk type ultracentrifuge at 100,000 rpm for 20 hours using TLA-100.2 rotor. Lipoprotein-containing fraction thus obtained was collected and treated with 10 w/v % trichloroacetic acid solution. The precipitate was collected and dissolved into 80 μL of solution for SDS-PAGE. 10 μL of the solution was subjected to 15 w/v % SDS-PAGE and the gels were stained with Coomassie brilliant blue. By comparing the bands with molecular weight markers, ApoE was identified.

[2] = system: foamed C57BL/6J mouse-derived macrophages; test: ApoE secretion-promoting effect in foamed mouse peritoneal macrophages (Western blotting of supernatants); type: cell-based; settings: BO-653 added at 3 and 10 μmol/L, 24 hours of culture, anti-mouse ApoE antibody, FIG. 1
Experimental: as §1, §2
The samples were subjected to 10 w/v % SDS-PAGE. Following the SDS-PAGE, the bands were transferred onto nitrocellulose papers using semi-drying method and blocked with TBS containing 10 w/v % skim milk and 0.1 vol % Tween-20. Rabbit anti-mouse ApoE-antibody (#K23100R, BIODESIGN) and peroxidase-labeled anti-rabbit IgG antibody (#7071-1, Cell Signaling TECHNOLOGY) were used as the first and secondary antibodies, respectively. ApoE was detected using chemoluminescence method (PIERCE).

SMILES: CCCCCC1(CCCCC)Cc2c(cc(C(C)(C)C)c(O)c2C(C)(C)C)O1 [BO-653, 4,6-di-t-butyl-2,2-dipentyl-5-hydroxy-2,3-dihydrobenzofuran]
- Cholesterol Reduction (%) Means ([1]; BO-653 3 μmol/L): 132.6%
- Cholesterol Reduction (%) Means ([1]; BO-653 10 μmol/L): 145.9%
- intracellular cholesterol content of macrophages ([1]; treatment with BO-653, 24 hours, result in words): decrease in intracellular cholesterol content
- ApoE production in serum lipoprotein-containing fraction (C57BL/6J mice): increased ApoE production
- saccharified-ApoE expression in culture supernatant [2]: increased saccharified-ApoE expression
